Experimental data: PMC2359721 (British Journal of Cancer, 2007)

Legend:
EGFR phosphorylation = test system: EGFR phosphorylation; parameters: method as in Torrance et al, 2000; conditions: xenograft model; ref Torrance et al, 2000; cited from earlier work
[1] = parameters: method as in Torrance et al, 2000; conditions: ref Torrance et al, 2000; cited from earlier work
[2] = test system: gefitinib-resistant kinases; parameters: method as in Carter et al, 2005; Kwak et al, 2005; conditions: preclinical studies, ref Carter et al, 2005, Kwak et al; cited from earlier work
C-SRC = conditions: at concentrations 100- to 1000-fold higher; ref Boehringer-Ingelheim, data on file; cited from earlier work
[3] = minipig, in vivo; cited from earlier work
[4] = target: vascular endothelial growth factor 2; conditions: at concentrations 100- to 1000-fold higher; ref Boehringer-Ingelheim, data on file; cited from earlier work
[5] = test system: A431, MDA-MB-453, NCI-N87 gastric and SKOV-3 ovarian xenografts; parameters: method as in Boehringer-Ingelheim, data on file; conditions: oral, ref Boehringer-Ingelheim, data on file, cited from earlier work
[6] = Plasma pharmacokinetics in patients (HPLC-MS/MS, noncompartmental); conditions: for CL/F / Vd/F / half-life / AUC(0-t) / Cmax / Tmax: human, plasma, oral
[7] = Phase I safety, DLT and MTD, OD 14 days on / 14 days off; assay type: in vivo
Protocol: Tablets were taken 1 h before breakfast. A cycle was defined as 14 days on treatment followed by 14 days off medication. […] The starting dose corresponded with one-fifth of the toxic dose low in rats, the most sensitive species. The dose for successive cohorts was doubled until observation of drug-related AE grade ⩾2 according to common toxicity criteria v3.0 in one or more patients in the first cycle. Thereafter escalation steps were ⩽50%. Should DLT be observed in one out of six patients and dose escalation continued, escalation steps were ⩽35%. Initially, three patients were treated per dose level. If one patient experienced drug-related DLT, three additional patients were treated. When no further patient experienced DLT, the dose was escalated. When ⩾2/6 patients experienced DLT, three additional patients were treated 1 dose tier below unless six had already been treated there.
Maximum tolerated dose was defined as the highest dose with ⩽1/6 patients experiencing DLT during cycle 1. Dose-limiting toxicity was defined as grade 3 or 4 nonhaematological toxicity except untreated nausea, vomiting, or diarrhoea; grade 4 haematological toxicity; grade 3 diarrhoea, nausea, or vomiting despite supportive care; need for loperamide for ⩾7 days to treat or prevent grade ⩾2 diarrhoea; need for continuous administration of 5HT-3 antagonists or dexamethasone to treat or prevent grade ⩾2 nausea or vomiting; occurrence of grade ⩾2 cardiac left ventricular function or renal toxicity. In the absence of DLT or disease progression, patients received six cycles and were allowed to continue in an extension protocol. Intrapatient dose escalation was not allowed. The study was approved by local Ethics Committees, and all patients provided written informed consent.
(§1) Prior to therapy, medical history taking and physical examination were performed. A complete blood cell count (CBC), white blood cell (WBC) differential and serum biochemistry were performed, as were urinalysis, electrocardiogram, MUGA scanning and, chest X-ray. Weekly evaluations during cycles 1 and 2 and every other week thereafter included physical examination, AE assessment, CBC, WBC differential and serum chemistry including renal function. Tumour measurements and MUGA scanning were performed every other cycle. Response was assessed using RECIST ([Therasse et al, 2000]).

advanced solid tumours [8] = conditions: cited from earlier work
advanced solid tumours [9] = experiment: Antitumour activity (RECIST); assay type: in vivo, human
Protocol: as §1

epidermal keratinocytes = experiment: Pharmacodynamics in paired skin biopsies (immunohistochemistry); assay type: in vivo, human; conditions: on therapy day 14 cycle 1, all dose levels pooled, 36 paired biopsies; pretreatment 14.0±4.5%; P<0.0001

SMILES: CCOc1cc2ncc(C#N)c(Nc3ccc(F)c(Cl)c3)c2cc1NC(=O)/C=C/CN(C)C [EKB-569]
- duration of inhibition of EGFR phosphorylation (EGFR phosphorylation): > 24 h
- plasma half-life [1]: 2 h
- inhibition of gefitinib-resistant kinases [2]: inhibition

SMILES: C=CC(=O)Nc1cc2c(Nc3ccc(F)c(Cl)c3)ncnc2cc1OCCCN1CCOCC1 [CI-1033]
- inhibition of gefitinib-resistant kinases [2]: inhibition

SMILES: CCOc1cc2ncc(C#N)c(Nc3ccc(OCc4ccccn4)c(Cl)c3)c2cc1NC(=O)/C=C/CN(C)C [HKI-272]
- inhibition of gefitinib-resistant kinases [2]: inhibition

SMILES: CN(C)C/C=C/C(=O)Nc1cc2c(Nc3ccc(F)c(Cl)c3)ncnc2cc1O[C@H]1CCOC1 [BIBW 2992]
- kinase inhibition (C-SRC): not inhibited
- organs in which toxicity occurred [3]: gastrointestinal tract
- kinase inhibition [4]: not inhibited
- tumour regression ([5]; mice with A431, MDA-MB-453, NCI-N87 gastric, SKOV-3 ovarian models): induced tumour regression
- plasma concentrations at which tumour regression was induced ([5]; xenograft models in mice): 80 to 280 nM
- time to reach steady state ([6]; OD dosing): ≤ 8 days
- CL/F [6]: 383 to 1390 mL/min
- Vd/F [6]: 1250 to 4760 L
- half-life [6]: 28 to 43 h
- AUC(0-t) ([6]; 10 mg): 199 ng·h/mL
- CL/F ([6]; 10 mg): 839 mL/min
- Cmax ([6]; 10 mg): 14.1 ng/mL
- Tmax ([6]; 10 mg): 2.98 h
- Vd/F ([6]; 10 mg): 2610 L
- half-life ([6]; 10 mg): 35.9 h
- AUC(0-t) ([6]; 20 mg): 241 ng·h/mL
- CL/F ([6]; 20 mg): 1390 mL/min
- Cmax ([6]; 20 mg): 16.2 ng/mL
- Tmax ([6]; 20 mg): 4 h
- Vd/F ([6]; 20 mg): 4760 L
- half-life ([6]; 20 mg): 39.7 h
- AUC(0-t) ([6]; 30 mg): 1310 ng·h/mL
- CL/F ([6]; 30 mg): 383 mL/min
- Cmax ([6]; 30 mg): 111 ng/mL
- Tmax ([6]; 30 mg): 0.95 h
- Vd/F ([6]; 30 mg): 1250 L
- half-life ([6]; 30 mg): 37.7 h
- AUC(0-t) ([6]; 45 mg): 840 ng·h/mL
- CL/F ([6]; 45 mg): 893 mL/min
- Cmax ([6]; 45 mg): 68.4 ng/mL
- Tmax ([6]; 45 mg): 3 h
- Vd/F ([6]; 45 mg): 3350 L
- half-life ([6]; 45 mg): 43.4 h
- AUC(0-t) ([6]; 70 mg): 2620 ng·h/mL
- CL/F ([6]; 70 mg): 445 mL/min
- Cmax ([6]; 70 mg): 180 ng/mL
- Tmax ([6]; 70 mg): 2 h
- Vd/F ([6]; 70 mg): 1530 L
- half-life ([6]; 70 mg): 39.6 h
- AUC(0-t) ([6]; 85 mg): 2340 ng·h/mL
- CL/F ([6]; 85 mg): 604 mL/min
- Cmax ([6]; 85 mg): 163 ng/mL
- Tmax ([6]; 85 mg): 2 h
- Vd/F ([6]; 85 mg): 1610 L
- half-life ([6]; 85 mg): 30.8 h
- AUC(0-t) ([6]; 100 mg): 2750 ng·h/mL
- CL/F ([6]; 100 mg): 606 mL/min
- Cmax ([6]; 100 mg): 234 ng/mL
- Tmax ([6]; 100 mg): 1 h
- Vd/F ([6]; 100 mg): 1500 L
- half-life ([6]; 100 mg): 28.6 h
- Maximum tolerated dose ([7]; OD 14 days on, 14 days off): 70 mg
- recommended dose (phase 2) ([7]; OD, 14-day on, 14-day off schedule): 70 mg
- incidence of diarrhoea ([7]; human, in vivo): 84%
- incidence of gastrointestinal AE ([7]; human, in vivo): 92%
- onset of diarrhoea ([7]; human, in vivo): ≤ 7 days
- overall incidence of rash, acne and dry skin ([7]; human, in vivo): 95%
- patients with grade 1 anemia ([7]; human, in vivo): 6 patients
- patients with mild fatigue ([7]; human, in vivo): 24 patients
- patients with mild gastrointestinal AE (diarrhoea, nausea, vomiting) ([7]; human, in vivo): 35 patients
- patients with self-limiting epistaxis ([7]; human, in vivo): 20 patients
- DLT observed in cycle 1, initial 70 mg cohort ([7]; in vivo): one
- patients with LVEF reduction ([7]; in vivo): Two
- patients with grade 1 thrombocytopaenia ([7]; in vivo): two
- patients with grade 2 ALT ([7]; in vivo): three
- patients with grade 2 AST ([7]; in vivo): four
- patients with grade 2 alkaline phosphatase ([7]; in vivo): five
- patients with grade 2 bilirubin ([7]; in vivo): two
- patients with partial tumour responses (advanced solid tumours [8]; adenocarcinoma of the lung, ref Shaw et al, 2006): two
- LVEF changes in additional trials (advanced solid tumours [8]; preliminary data from ⩾120 patients, ref Agus et al, 2006, Shaw et al): not indicated significant LVEF changes
- objective response (advanced solid tumours [9]; 38 patients, 10–100 mg): No partial or complete responses
- patients with minor tumour regressions (advanced solid tumours [9]; all treated at doses of ⩾45 mg): Eight
- median number of cycles in patients with stable disease (advanced solid tumours [9]; patients with stable disease ⩾4 cycles): 6 (range 5–9) cycles
- patients with stable disease lasting ⩾4 cycles (advanced solid tumours [9]; various tumour types): seven
- percentage Ki-67-positive cells (means±s.d.) (epidermal keratinocytes): 7.9±4.5%
